Test results from ChEMBL document CHEMBL4507291 (2021).

Columns and labels:
[1] = molecular target: Cyclin-dependent kinase 11A (Homo sapiens) (UniProt Q9UQ88)
[2] = molecular target: Cyclin-dependent kinase 4 (Homo sapiens) (UniProt P11802)
[3] = molecular target: Casein kinase I isoform delta (Homo sapiens) (UniProt P48730)
[4] = test system: Epidermal growth factor receptor (Homo sapiens), P00533 [UNDEFINED MUTATION]
[5] = test system: Epidermal growth factor receptor (Homo sapiens), P00533 [L861Q]
[6] = test system: Epidermal growth factor receptor (Homo sapiens), P00533 [T790M]
[7] = molecular target: Mitogen-activated protein kinase kinase kinase kinase 1 (Homo sapiens) (UniProt Q92918)
[8] = molecular target: Serine/threonine-protein kinase LATS2 (Homo sapiens) (UniProt Q9NRM7)
[9] = molecular target: Mitogen-activated protein kinase kinase kinase kinase 5 (Homo sapiens) (UniProt Q9Y4K4)
[10] = molecular target: Maternal embryonic leucine zipper kinase (Homo sapiens) (UniProt Q14680)
[11] = molecular target: Myosin light chain kinase (Homo sapiens) (UniProt Q32MK0)
[12] = molecular target: Serine/threonine-protein kinase Nek11 (Homo sapiens) (UniProt Q8NG66)
[13] = molecular target: Phosphatidylinositol 4,5-bisphosphate 3-kinase catalytic subunit alpha isoform (Homo sapiens) (UniProt P42336)
[14] = test system: Phosphatidylinositol 4,5-bisphosphate 3-kinase catalytic subunit alpha isoform (Homo sapiens), P42336 [H1047Y]
[15] = molecular target: Phosphatidylinositol 4,5-bisphosphate 3-kinase catalytic subunit delta isoform (Homo sapiens) (UniProt O00329)
[16] = molecular target: Serine/threonine-protein kinase pim-2 (Homo sapiens) (UniProt Q9P1W9)
[17] = molecular target: T1, Protein kinase C iota type (Homo sapiens) (UniProt P41743)
T1 sequence (whole entry): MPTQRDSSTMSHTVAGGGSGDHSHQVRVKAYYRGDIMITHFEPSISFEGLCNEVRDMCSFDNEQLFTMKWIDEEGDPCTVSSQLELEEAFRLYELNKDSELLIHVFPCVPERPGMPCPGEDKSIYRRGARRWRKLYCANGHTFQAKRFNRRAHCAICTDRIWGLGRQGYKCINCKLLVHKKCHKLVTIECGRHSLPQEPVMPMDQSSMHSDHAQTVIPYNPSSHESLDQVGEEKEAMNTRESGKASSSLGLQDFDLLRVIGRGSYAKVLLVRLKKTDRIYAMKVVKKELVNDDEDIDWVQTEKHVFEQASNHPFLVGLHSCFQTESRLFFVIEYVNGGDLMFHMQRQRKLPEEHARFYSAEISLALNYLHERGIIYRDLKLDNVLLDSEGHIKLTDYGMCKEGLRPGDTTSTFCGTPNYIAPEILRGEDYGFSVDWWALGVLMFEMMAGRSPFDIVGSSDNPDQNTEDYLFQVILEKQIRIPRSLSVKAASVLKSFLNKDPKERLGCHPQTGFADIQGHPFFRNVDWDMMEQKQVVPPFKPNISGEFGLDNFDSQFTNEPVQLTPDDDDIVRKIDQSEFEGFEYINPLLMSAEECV

[18] = molecular target: Proto-oncogene tyrosine-protein kinase ROS (Homo sapiens) (UniProt P08922)
[19] = molecular target: T2, Serine/threonine-protein kinase Sgk3 (Homo sapiens) (UniProt Q96BR1)
T2 sequence (whole entry): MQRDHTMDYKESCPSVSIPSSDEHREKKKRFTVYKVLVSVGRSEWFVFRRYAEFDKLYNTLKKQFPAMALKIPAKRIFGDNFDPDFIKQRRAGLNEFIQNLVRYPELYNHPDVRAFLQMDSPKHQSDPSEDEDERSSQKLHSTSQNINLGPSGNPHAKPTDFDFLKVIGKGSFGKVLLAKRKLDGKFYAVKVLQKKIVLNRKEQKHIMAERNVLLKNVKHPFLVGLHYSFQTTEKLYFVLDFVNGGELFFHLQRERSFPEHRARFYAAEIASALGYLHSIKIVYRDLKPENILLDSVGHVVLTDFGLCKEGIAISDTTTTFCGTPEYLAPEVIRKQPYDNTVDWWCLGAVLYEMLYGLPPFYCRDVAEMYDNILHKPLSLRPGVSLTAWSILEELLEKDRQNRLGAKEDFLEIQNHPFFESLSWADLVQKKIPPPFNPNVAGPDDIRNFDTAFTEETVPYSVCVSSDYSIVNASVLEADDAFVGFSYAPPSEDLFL

[20] = molecular target: Testis-specific serine/threonine-protein kinase 1 (Homo sapiens) (UniProt Q9BXA7)
[21] = molecular target: Serine/threonine-protein kinase ULK2 (Homo sapiens) (UniProt Q8IYT8)
[22] = molecular target: T3, 5-hydroxytryptamine receptor 1A (Homo sapiens) (UniProt P08908); conditions: Compound concentration 10.0 uM
T3 sequence (whole entry): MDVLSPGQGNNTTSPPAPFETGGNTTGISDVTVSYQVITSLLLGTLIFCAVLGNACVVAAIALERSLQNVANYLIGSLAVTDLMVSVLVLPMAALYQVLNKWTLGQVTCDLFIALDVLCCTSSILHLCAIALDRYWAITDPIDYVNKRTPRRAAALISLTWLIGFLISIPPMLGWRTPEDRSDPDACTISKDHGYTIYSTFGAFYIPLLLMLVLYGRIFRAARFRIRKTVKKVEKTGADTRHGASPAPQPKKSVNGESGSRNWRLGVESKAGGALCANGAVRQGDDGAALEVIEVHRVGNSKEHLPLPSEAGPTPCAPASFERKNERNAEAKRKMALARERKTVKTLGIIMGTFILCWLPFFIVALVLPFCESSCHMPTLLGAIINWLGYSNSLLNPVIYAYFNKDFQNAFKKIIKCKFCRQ

[23] = molecular target: 5-hydroxytryptamine receptor 1E (Homo sapiens) (UniProt P28566); conditions: Compound concentration 10.0 uM
[24] = molecular target: Histamine H2 receptor (Homo sapiens) (UniProt P25021); conditions: Compound concentration 10.0 uM
[25] = Compound concentration 1000.0 nM
[26] = Compound concentration 100.0 nM

Chain of Mitogen-activated protein kinase kinase kinase kinase 5 (Homo sapiens) (Q9Y4K4 whole entry, looked up): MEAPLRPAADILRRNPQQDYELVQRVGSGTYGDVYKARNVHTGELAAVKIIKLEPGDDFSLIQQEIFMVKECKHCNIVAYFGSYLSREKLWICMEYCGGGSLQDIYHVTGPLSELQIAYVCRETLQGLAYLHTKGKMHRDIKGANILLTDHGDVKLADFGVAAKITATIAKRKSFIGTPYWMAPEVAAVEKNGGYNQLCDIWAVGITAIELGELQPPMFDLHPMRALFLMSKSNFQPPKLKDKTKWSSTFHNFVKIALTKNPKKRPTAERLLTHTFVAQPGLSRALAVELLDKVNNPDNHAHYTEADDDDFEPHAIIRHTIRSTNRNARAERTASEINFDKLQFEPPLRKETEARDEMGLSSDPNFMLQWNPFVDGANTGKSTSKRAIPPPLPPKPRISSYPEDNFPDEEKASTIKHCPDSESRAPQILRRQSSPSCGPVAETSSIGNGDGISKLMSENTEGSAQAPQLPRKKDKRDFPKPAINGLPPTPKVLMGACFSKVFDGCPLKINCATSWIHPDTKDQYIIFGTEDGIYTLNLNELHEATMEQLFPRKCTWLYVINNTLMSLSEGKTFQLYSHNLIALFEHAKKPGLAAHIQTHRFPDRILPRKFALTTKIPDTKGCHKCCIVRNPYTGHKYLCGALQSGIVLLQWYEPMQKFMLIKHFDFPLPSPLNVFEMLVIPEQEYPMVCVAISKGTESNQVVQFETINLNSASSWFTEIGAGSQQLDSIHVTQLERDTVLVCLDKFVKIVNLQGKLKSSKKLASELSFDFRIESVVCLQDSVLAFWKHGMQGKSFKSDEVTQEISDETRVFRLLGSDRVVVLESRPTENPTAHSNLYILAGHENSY
Chain of Serine/threonine-protein kinase ULK2 (Homo sapiens) (Q8IYT8 whole entry): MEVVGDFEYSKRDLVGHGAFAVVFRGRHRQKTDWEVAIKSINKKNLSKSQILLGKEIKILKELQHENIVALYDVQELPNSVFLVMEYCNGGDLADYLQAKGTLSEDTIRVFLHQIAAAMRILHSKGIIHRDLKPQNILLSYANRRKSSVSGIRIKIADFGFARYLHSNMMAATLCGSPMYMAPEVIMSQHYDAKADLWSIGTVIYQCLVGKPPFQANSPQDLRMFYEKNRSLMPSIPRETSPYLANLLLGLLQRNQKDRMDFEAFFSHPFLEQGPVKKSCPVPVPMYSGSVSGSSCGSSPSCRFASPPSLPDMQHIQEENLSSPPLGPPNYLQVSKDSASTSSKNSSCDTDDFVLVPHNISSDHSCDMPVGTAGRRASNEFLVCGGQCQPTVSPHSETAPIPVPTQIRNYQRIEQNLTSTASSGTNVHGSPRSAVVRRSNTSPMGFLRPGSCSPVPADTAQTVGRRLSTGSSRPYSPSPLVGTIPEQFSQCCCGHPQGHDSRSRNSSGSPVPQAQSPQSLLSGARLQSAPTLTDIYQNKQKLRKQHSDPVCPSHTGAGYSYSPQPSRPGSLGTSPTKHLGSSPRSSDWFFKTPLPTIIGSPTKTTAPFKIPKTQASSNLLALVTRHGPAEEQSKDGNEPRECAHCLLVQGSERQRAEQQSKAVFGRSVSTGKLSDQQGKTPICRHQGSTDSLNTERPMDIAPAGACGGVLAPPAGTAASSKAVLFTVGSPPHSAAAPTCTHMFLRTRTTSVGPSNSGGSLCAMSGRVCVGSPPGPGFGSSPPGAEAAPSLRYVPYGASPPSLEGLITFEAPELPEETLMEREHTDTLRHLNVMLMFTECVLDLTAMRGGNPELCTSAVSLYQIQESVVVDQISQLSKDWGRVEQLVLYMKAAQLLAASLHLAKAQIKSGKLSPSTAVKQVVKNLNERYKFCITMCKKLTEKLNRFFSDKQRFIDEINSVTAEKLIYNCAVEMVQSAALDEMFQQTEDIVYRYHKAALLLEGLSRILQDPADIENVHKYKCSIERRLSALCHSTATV
Chain of 5-hydroxytryptamine receptor 1E (Homo sapiens) (P28566 whole entry): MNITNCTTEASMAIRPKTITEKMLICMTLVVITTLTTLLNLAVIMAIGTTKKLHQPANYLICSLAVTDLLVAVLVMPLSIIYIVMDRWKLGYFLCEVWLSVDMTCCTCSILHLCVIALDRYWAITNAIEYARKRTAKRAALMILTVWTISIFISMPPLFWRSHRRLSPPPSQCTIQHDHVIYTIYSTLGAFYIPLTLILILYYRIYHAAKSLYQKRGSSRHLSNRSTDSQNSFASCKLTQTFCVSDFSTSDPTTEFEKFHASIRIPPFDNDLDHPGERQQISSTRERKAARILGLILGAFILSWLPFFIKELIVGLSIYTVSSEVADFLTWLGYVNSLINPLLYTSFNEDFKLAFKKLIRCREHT
Chain of Proto-oncogene tyrosine-protein kinase ROS (Homo sapiens) (P08922 whole entry): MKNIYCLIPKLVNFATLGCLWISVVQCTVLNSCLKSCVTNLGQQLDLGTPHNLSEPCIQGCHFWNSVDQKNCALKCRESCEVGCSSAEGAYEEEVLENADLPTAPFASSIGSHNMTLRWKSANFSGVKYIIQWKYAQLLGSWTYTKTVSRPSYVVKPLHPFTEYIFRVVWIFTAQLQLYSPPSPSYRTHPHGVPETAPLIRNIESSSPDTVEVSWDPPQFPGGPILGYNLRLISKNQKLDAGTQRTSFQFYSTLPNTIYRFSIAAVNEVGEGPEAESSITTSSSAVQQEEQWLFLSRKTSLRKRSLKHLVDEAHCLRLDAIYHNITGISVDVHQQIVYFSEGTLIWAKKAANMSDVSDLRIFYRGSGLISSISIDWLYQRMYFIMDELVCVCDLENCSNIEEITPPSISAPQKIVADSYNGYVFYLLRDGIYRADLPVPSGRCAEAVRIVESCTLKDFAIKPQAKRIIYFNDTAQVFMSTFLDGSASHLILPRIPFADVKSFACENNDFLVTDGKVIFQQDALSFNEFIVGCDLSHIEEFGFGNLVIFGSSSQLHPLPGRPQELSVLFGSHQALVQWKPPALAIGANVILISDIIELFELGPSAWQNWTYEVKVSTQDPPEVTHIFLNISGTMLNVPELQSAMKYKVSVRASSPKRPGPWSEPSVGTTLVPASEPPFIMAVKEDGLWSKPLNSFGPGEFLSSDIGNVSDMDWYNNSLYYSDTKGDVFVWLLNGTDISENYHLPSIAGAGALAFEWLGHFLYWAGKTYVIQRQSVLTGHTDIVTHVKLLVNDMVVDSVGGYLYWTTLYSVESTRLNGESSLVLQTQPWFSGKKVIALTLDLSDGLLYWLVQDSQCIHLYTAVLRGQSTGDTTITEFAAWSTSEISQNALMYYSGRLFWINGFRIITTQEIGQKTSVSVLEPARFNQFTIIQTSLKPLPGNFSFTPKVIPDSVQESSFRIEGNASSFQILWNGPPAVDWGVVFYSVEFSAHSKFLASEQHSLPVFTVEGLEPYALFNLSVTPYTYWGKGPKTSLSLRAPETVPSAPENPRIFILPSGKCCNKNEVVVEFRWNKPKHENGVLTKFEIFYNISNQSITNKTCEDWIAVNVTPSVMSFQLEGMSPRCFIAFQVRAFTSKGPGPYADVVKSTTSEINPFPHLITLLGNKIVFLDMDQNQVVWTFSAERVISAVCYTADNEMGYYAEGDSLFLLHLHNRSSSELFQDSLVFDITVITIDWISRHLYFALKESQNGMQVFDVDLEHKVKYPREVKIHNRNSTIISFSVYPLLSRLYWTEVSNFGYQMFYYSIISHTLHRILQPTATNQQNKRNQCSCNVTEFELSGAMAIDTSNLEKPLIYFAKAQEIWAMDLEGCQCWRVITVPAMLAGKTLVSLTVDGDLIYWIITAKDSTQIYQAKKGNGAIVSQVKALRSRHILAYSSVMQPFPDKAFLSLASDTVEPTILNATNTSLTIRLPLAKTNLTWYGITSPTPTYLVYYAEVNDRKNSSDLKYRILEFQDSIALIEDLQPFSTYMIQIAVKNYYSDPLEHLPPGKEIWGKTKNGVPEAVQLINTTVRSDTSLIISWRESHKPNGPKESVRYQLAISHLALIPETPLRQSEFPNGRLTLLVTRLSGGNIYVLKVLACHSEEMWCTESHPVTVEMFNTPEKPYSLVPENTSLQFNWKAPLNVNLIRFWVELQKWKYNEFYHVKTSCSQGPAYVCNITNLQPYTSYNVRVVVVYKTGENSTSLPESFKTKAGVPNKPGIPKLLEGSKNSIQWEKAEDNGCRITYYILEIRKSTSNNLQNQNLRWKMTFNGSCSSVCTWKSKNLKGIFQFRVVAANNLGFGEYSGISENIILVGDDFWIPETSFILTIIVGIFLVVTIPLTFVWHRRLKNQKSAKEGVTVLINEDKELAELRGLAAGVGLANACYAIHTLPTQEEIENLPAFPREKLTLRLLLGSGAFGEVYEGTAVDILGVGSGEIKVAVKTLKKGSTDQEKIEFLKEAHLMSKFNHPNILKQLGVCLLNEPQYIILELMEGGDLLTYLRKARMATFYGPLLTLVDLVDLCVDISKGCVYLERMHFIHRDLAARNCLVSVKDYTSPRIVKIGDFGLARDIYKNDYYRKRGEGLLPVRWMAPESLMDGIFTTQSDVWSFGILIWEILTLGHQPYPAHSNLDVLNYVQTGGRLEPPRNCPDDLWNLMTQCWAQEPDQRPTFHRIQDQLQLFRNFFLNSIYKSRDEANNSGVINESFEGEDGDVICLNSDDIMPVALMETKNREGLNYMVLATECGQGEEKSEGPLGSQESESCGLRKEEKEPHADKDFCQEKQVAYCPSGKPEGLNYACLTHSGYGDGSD
Chain of Testis-specific serine/threonine-protein kinase 1 (Homo sapiens) (Q9BXA7 whole entry): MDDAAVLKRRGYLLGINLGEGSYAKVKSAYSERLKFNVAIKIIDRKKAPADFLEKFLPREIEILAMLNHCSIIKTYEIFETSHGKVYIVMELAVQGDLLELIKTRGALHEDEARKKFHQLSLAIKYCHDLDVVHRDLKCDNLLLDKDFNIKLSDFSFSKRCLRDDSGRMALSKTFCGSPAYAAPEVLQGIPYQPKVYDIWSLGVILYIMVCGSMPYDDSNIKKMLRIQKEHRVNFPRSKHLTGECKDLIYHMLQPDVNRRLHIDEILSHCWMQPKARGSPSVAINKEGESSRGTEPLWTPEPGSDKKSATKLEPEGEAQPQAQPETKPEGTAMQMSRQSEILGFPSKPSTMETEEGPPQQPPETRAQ

C[C@@H]1CN(c2cc(-c3nn(C)c4ccc(OC5(C)CC5)cc34)ncn2)C[C@H](C)O1 [MLi-2-NC]
inactive: residual activity [1, 25] 100% | residual activity [2, 25] 71% | residual activity [3, 25] 84% | residual activity [4, 25] 100% | residual activity [5, 25] 83% | residual activity [6, 25] 100% | residual activity [7, 25] 100% | residual activity [8, 25] 58% | residual activity [9, 25] 100% | residual activity [10, 25] 55% | residual activity [11, 25] 97% | residual activity [12, 25] 58% | residual activity [13, 25] 100% | residual activity [14, 25] 100% | residual activity [15, 25] 97% | residual activity [16, 25] 100% | residual activity [17, 25] 100% | residual activity [18, 25] 100% | residual activity [19, 25] 67% | residual activity [20, 25] 99% | residual activity [21, 25] 59% | inhibition [22] 18.1% | inhibition [23] -0.18% | inhibition [24] 18.4%

C[C@@H]1CN(c2cc(-c3n[nH]c4ccc(OC5(C)CC5)cc34)ncn2)C[C@H](C)O1 [MLi-2]
inactive: residual activity [1, 26] 93% | residual activity [2, 26] 97% | residual activity [3, 26] 80% | residual activity [4, 26] 51% | residual activity [5, 26] 50% | residual activity [6, 26] 100% | residual activity [7, 26] 84% | residual activity [8, 26] 68% | residual activity [9, 26] 100% | residual activity [10, 26] 88% | residual activity [11, 26] 87% | residual activity [12, 26] 100% | residual activity [13, 26] 100% | residual activity [14, 26] 76% | residual activity [15, 26] 68% | residual activity [16, 26] 88% | residual activity [17, 26] 80% | residual activity [18, 26] 100% | residual activity [19, 26] 84% | residual activity [20, 26] 72% | residual activity [21, 26] 69% | inhibition [22] 4.44% | inhibition [23] -7.52% | inhibition [24] 6.26%
